Results: US20220389007A1, “INHIBITORS OF HUMAN IMMUNODEFICIENCY VIRUS REPLICATION” (VIIV HEALTHCARE UK (No. 5) LIMITED, priority 2019, published 2022)

Columns and labels:
[1] = Compound cytotoxicity, XTT-based colorimetric assay; format: cell-based; details: human; uninfected MT2 cells, day 4, XTT assay
Description: Compound cytotoxicity and the corresponding CC50 values were determined using the same protocol as described in the antiviral assay except that uninfected cells were used. Cytotoxicity was assessed on day 4 in uninfected MT2 cells by using a XTT (2,3-bis[2-Methoxy-4-nitro-5-sulfophenyl]-2H-tetrazolium-5-carboxyanilide inner salt)-based colorimetric assay (Sigma-Aldrich, St Louis, Mo.).

recombinant NL4-3 virus = experiment: HIV cell culture assay (antiviral activity, luciferase readout); format: cell-based; details: Human immunodeficiency virus 1, NL43, MT2, MT-2 cells infected for 4-5 days with recombinant NL4-3 virus carrying Renilla luciferase
Description: HIV cell culture assay—MT-2 cells, 293T cells and the proviral DNA clone of NL4-3 virus were obtained from the NIH AIDS Research and Reference Reagent Program. MT-2 cells were propagated in RPMI 1640 media supplemented with 10% heat inactivated fetal bovine serum (FBS), […]. The 293T cells were propagated in DMEM media supplemented with 10% heat inactivated FBS, […]. A recombinant NL4-3 proviral clone, in which a section of the nef gene was replaced with the Renilla luciferase gene, was used to make the reference virus used in these studies. The recombinant virus was prepared through transfection of the recombinant NL4-3 proviral clone into 293T cells using Transit-293 Transfection Reagent from Mirus Bio LLC (Madison, WI). Supernatent was harvested after 2-3 days and the amount of virus present was titered in MT-2 cells using luciferase enzyme activity as a marker by measuring luciferase enzyme activity. Luciferase was quantitated using the EnduRen Live Cell Substrate from Promega (Madison, Wis.). Antiviral activities of compounds toward the recombinant virus were quantified by measuring luciferase activity in MT-2 cells infected for 4-5 days with the recombinant virus in the presence of serial dilutions of the compound.
The 50% effective concentration (EC50) was calculated by using the exponential form of the median effect equation where (Fa)=1/[1+(ED50/drug conc.)m] (Johnson VA, Byington RT. Infectivity Assay. In Techniques in HIV Research. ed. Aldovini A, Walker BD. 71-76. New York: Stockton Press. 1990). The 50% inhibitory concentration (EC50) was calculated by using the exponential form of the median effect equation where percent inhibition=1/[1+(EC50/drug concentration)m], where m is a parameter that reflects the slope of the concentration-response curve.

Compound	CC50 at 4 day [1]	EC50 (recombinant NL4-3 virus)
Cn1nc(NS(C)(=O)=O)c2c(Cl)ccc(-n3c([C@H](Cc4cc(F)cc(F)c4)NC(=O)Cn4nc(C(F)F)c5c4C(F)(F)[C@@H]4C[C@H]54)nc4nc(-c5csc(C(C)(C)O)n5)ccc4c3=O)c21 (atropisomer, axis not shown; (P)) [Example 91, N-((S)-1-((3P)-3-(4-chloro-1-methyl-3-(methylsulfonamido)-1H-indazol-7-yl)-7-(2-(2-hydroxypropan-2-yl)thiazol-4-yl)-4-oxo-3,4-dihydropyrido[2,3-d]pyrimidin-2-yl)-2-(3,5-difluorophenyl)ethyl)-2-((3bS,4aR)-3-(difluoromethyl)-5,5-difluoro-3b,4,4a,5-tetrahydro-1H-cyclopropa[3,4]cyclopenta[1,2-c]pyrazol-1-yl)acetamide]	> 100 nM	0.037 nM
Cc1cc(-c2ccc3c(=O)n(-c4ccc(Cl)c5c(NS(C)(=O)=O)nn(C)c45)c([C@H](Cc4cc(F)cc(F)c4)NC(=O)Cn4nc(C(F)F)c5c4C(F)(F)[C@@H]4C[C@H]54)nc3n2)n(CC(C)(F)F)n1 (single isomer, unassigned) [Example 97]	> 100 nM	12 nM
Cn1nc(NS(C)(=O)=O)c2c(Cl)ccc(-n3c([C@H](Cc4cc(F)cc(F)c4)NC(=O)Cn4nc(C(F)F)c5c4C(F)(F)[C@@H]4C[C@H]54)nc4nc(-c5cc(C(F)(F)F)[nH]n5)ccc4c3=O)c21 (atropisomer, axis not shown; (P)) [Example 90, N-((S)-1-((3P)-3-(4-chloro-1-methyl-3-(methylsulfonamido)-1H-indazol-7-yl)-4-oxo-7-(5-(trifluoromethyl)-1H-pyrazol-3-yl)-3,4-dihydropyrido[2,3-d]pyrimidin-2-yl)-2-(3,5-difluorophenyl)ethyl)-2-((3bS,4aR)-3-(difluoromethyl)-5,5-difluoro-3b,4,4a,5-tetrahydro-1H-cyclopropa[3,4]cyclopenta[1,2-c]pyrazol-1-yl)acetamide]	> 100 nM	0.098 nM
Cn1nc(NS(C)(=O)=O)c2c(Cl)ccc(-n3c([C@H](Cc4cc(F)cc(F)c4)NC(=O)Cn4nc(C(F)F)c5c4C(F)(F)[C@@H]4C[C@H]54)nc4nc(-n5ccnc5)ccc4c3=O)c21 (atropisomer, axis not shown; (P)) [Example 64, N-((S)-1-((3P)-3-(4-chloro-1-methyl-3-(methylsulfonamido)-1H-indazol-7-yl)-7-(1H-imidazol-1-yl)-4-oxo-3,4-dihydropyrido[2,3-d]pyrimidin-2-yl)-2-(3,5-difluorophenyl)ethyl)-2-((3bS,4aR)-3-(difluoromethyl)-5,5-difluoro-3b,4,4a,5-tetrahydro-1H-cyclopropa[3,4]cyclopenta[1,2-c]pyrazol-1-yl)acetamide]	> 100 nM	0.53 nM
Cn1nc(NS(C)(=O)=O)c2c(Cl)ccc(-n3c([C@H](Cc4cc(F)cc(F)c4)NC(=O)Cn4nc(C(F)F)c5c4C(F)(F)[C@@H]4C[C@H]54)nc4nc(-n5cc(C(F)(F)F)cn5)ccc4c3=O)c21 (atropisomer, axis not shown; (P)) [Example 66, N-((S)-1-((3P)-3-(4-chloro-1-methyl-3-(methylsulfonamido)-1H-indazol-7-yl)-4-oxo-7-(4-(trifluoromethyl)-1H-pyrazol-1-yl)-3,4-dihydropyrido[2,3-d]pyrimidin-2-yl)-2-(3,5-difluorophenyl)ethyl)-2-((3bS,4aR)-3-(difluoromethyl)-5,5-difluoro-3b,4,4a,5-tetrahydro-1H-cyclopropa[3,4]cyclopenta[1,2-c]pyrazol-1-yl)acetamide]	> 100 nM	0.07 nM
COc1cncc(-c2ccc3c(=O)n(-c4ccc(Cl)c5c(NS(C)(=O)=O)nn(C)c45)c([C@H](Cc4cc(F)cc(F)c4)NC(=O)Cn4nc(C(F)F)c5c4C(F)(F)[C@@H]4C[C@H]54)nc3n2)n1 (atropisomer, axis not shown; (P)) [Example 54, N-((S)-1-((3P)-3-(4-chloro-1-methyl-3-(methylsulfonamido)-1H-indazol-7-yl)-7-(6-methoxypyrazin-2-yl)-4-oxo-3,4-dihydropyrido[2,3-d]pyrimidin-2-yl)-2-(3,5-difluorophenyl)ethyl)-2-((3bS,4aR)-3-(difluoromethyl)-5,5-difluoro-3b,4,4a,5-tetrahydro-1H-cyclopropa[3,4]cyclopenta[1,2-c]pyrazol-1-yl)acetamide]	> 100 nM	0.039 nM
Cn1nc(NS(C)(=O)=O)c2c(Cl)ccc(-n3c([C@H](Cc4cc(F)cc(F)c4)NC(=O)Cn4nc(C(F)F)c5c4C(F)(F)[C@@H]4C[C@H]54)nc4nc(-c5cccc(C(F)(F)F)c5)ccc4c3=O)c21 (atropisomer, axis not shown; (P)) [Example 24, N-((S)-1-((3P)-3-(4-chloro-1-methyl-3-(methylsulfonamido)-1H-indazol-7-yl)-4-oxo-7-(3-(trifluoromethyl)phenyl)-3,4-dihydropyrido[2,3-d]pyrimidin-2-yl)-2-(3,5-difluorophenyl)ethyl)-2-((3bS,4aR)-3-(difluoromethyl)-5,5-difluoro-3b,4,4a,5-tetrahydro-1H-cyclopropa[3,4]cyclopenta[1,2-c]pyrazol-1-yl)acetamide]	> 100 nM	0.16 nM
Cn1nc(NS(C)(=O)=O)c2c(Cl)ccc(-n3c([C@H](Cc4cc(F)cc(F)c4)NC(=O)Cn4nc(C(F)F)c5c4C(F)(F)[C@@H]4C[C@H]54)nc4nc(-c5cc(C(F)(F)F)n(CC(C)(F)F)n5)ccc4c3=O)c21 (single isomer, unassigned) [Example 94]	> 100 nM	0.16 nM
Cn1nc(NS(C)(=O)=O)c2c(Cl)ccc(-n3c([C@H](Cc4cc(F)cc(F)c4)NC(=O)Cn4nc(C(F)F)c5c4C(F)(F)[C@@H]4C[C@H]54)nc4nc(-c5ccncc5)ccc4c3=O)c21 (atropisomer, axis not shown; (P)) [Example 34, N-((S)-1-((3P)-3-(4-chloro-1-methyl-3-(methylsulfonamido)-1H-indazol-7-yl)-4-oxo-7-(pyridin-4-yl)-3,4-dihydropyrido[2,3-d]pyrimidin-2-yl)-2-(3,5-difluorophenyl)ethyl)-2-((3bS,4aR)-3-(difluoromethyl)-5,5-difluoro-3b,4,4a,5-tetrahydro-1H-cyclopropa[3,4]cyclopenta[1,2-c]pyrazol-1-yl)acetamide]	> 100 nM	0.07 nM
Cn1nc(NS(C)(=O)=O)c2c(Cl)ccc(-n3c([C@H](Cc4cc(F)cc(F)c4)NC(=O)Cn4nc(C(F)F)c5c4C(F)(F)[C@@H]4C[C@H]54)nc4nc(-c5cncnc5)ccc4c3=O)c21 (atropisomer, axis not shown; (P)) [Example 55, N-((S)-1-((3P)-3-(4-chloro-1-methyl-3-(methylsulfonamido)-1H-indazol-7-yl)-4-oxo-7-(pyrimidin-5-yl)-3,4-dihydropyrido[2,3-d]pyrimidin-2-yl)-2-(3,5-difluorophenyl)ethyl)-2-((3bS,4aR)-3-(difluoromethyl)-5,5-difluoro-3b,4,4a,5-tetrahydro-1H-cyclopropa[3,4]cyclopenta[1,2-c]pyrazol-1-yl)acetamide]	> 100 nM	0.09 nM
Cn1nc(NS(C)(=O)=O)c2c(Cl)ccc(-n3c([C@H](Cc4cc(F)cc(F)c4)NC(=O)Cn4nc(C(F)F)c5c4C(F)(F)[C@@H]4C[C@H]54)nc4nc(-c5cncc(Cl)c5)ccc4c3=O)c21 (atropisomer, axis not shown; (P)) [Example 29, N-((S)-1-((3P)-3-(4-chloro-1-methyl-3-(methylsulfonamido)-1H-indazol-7-yl)-7-(5-chloropyridin-3-yl)-4-oxo-3,4-dihydropyrido[2,3-d]pyrimidin-2-yl)-2-(3,5-difluorophenyl)ethyl)-2-((3bS,4aR)-3-(difluoromethyl)-5,5-difluoro-3b,4,4a,5-tetrahydro-1H-cyclopropa[3,4]cyclopenta[1,2-c]pyrazol-1-yl)acetamide]	> 100 nM	0.057 nM
Cn1nc(NS(C)(=O)=O)c2c(Cl)ccc(-n3c([C@H](Cc4cc(F)cc(F)c4)NC(=O)Cn4nc(C(F)F)c5c4C(F)(F)[C@@H]4C[C@H]54)nc4nc(-c5ccc(S(C)(=O)=O)cc5)ccc4c3=O)c21 (atropisomer, axis not shown; (P)) [Example 35, N-((S)-1-((3P)-3-(4-chloro-1-methyl-3-(methylsulfonamido)-1H-indazol-7-yl)-7-(4-(methylsuIfonyl)phenyl)-4-oxo-3,4-dihydropyrido[2,3-d]pyrimidin-2-yl)-2-(3,5-difluorophenyl)ethyl)-2-((3bS,4aR)-3-(difluoromethyl)-5,5-difluoro-3b,4,4a,5-tetrahydro-1H-cyclopropa[3,4]cyclopenta[1,2-c]pyrazol-1-yl)acetamide]	> 100 nM	0.14 nM
